# Test system: AhR
# Test: DRE driven luciferase activity of C6 DRE stable clone (pGL-2 pro/DRE) and pGL2 control cell line
# Format: cell-based, rat
# Details: C6 glioma cells, pGL-2 pro/DRE stable clone versus pGL2 control cell line; FIG. 1
# From the text: The plasmid pGL-2 pro/DRE was constructed by inserting a synthesized DNA fragment containing three rat dioxin responsive element (DRE, […] CGCAACTCGCTAGCATA; SEQ ID NO:1) between the KpnI and NheI sites of pGL2-promoter (pGL2 pro). To generate pGL-2 pro/DRE stable clones, plasmids pGL-2 pro/DRE and pCMV-Tag 2B were co-transfected into C6 glioma cells by Lipofectamine™ 2000. Meanwhile, plasmid pGL-2 pro and pCMV-Tag 2B were followed the same conditions to generate pGL-2 control cell line. These transfected cells were selected by Geneticin® (G418, 500 μg/ml) for 18 days. The stable clones of C6 cells were obtained and maintained in DMEM with 10% FBS and G418. To examine the stably insertion of pGL-2 pro/DRE or pGL-2 pro, the G418 resistant cells were harvested to extracted genomic DNA for polymerase chain reaction (PCR). The inserted DNA was confirmed to amplify 392 bps for pGL-2 pro/DRE stable insertion or 324 bps for pGL-2 pro (pGL-2) stable insertion, respectively. Finally, the metabolic degradable AhR agonist, 3-methylcholanthere (3MC), was used to examine the luciferase activity of pGL-2 pro/DRE C6 stable clones.
# The metabolic degradable AhR agonist, 3-methylcholanthere (3MC), was used to examine the DRE driven luciferase activity of C6 DRE stable clone and pGL2 control cell line.
compound,measurement,value
"Cc1ccc2cc3c(ccc4ccccc43)c3c2c1CC3 [3MC, 3-methylcholanthere]",DRE driven luciferase activity (luminescence),increase luminescence in a dose response only in DRE stable clone

# Source: patent US8211695B2, “Isolated transgenic mammalian neural cell for detection of a sample containing a chemical substance damage to neurological system or selection of drugs for treating neurodegenerative disorders” (Taipei Medical University, priority 2010, dated 2012)
